The values that follow come from patent US11939300B2, “Compounds and methods for treating autoimmune disorders by targeting HLA-DQ2” (ImmunoMolecular Therapeutics, Inc., priority 2020, dated 2024).

In this experiment the test system is HLA-DQ2. The experiment in a line: Inhibition of IL-2 secretion by TCR transductants stimulated by α-gliadin peptides presented by HLA-DQ2 expressing K562 cells (ELISA). Type of experiment: cell-based, human. Particulars: for DQ2 IL2 Maximal % Inhibition: IL-2 secretion, TCR transductants (α I- or α II-gliadin) + gliadin peptide + HLA-DQ2 K562 cells, at the concentration given in brackets; for concentration at which the compound exhibited maximum % inhibition (DQ2 IL2): from dose-response curve, figure in brackets in the cell. How it is done: Three commercially available analogues of the DQ2 binding molecules of the invention were tested for their ability to inhibit stimulation of T cell receptor (TCR) transductants in the presence of HLA-DQ2 expressing cells presenting known α-gliadin epitopes.
Using a previously published in vitro assay (Ostrov D, et al. Methyldopa blocks MHC class II binding to disease specific antigens in autoimmune diabetes. J Clin Invest. 2018:128(5)) we measured the ability of these DQ2 binding analogues to inhibit interleukin-2 (IL-2) secretion by TCR transductants stimulated by α-gliadin peptides presented by HLA-DQ2. Individual TCR transductants (recognizing α I-gliadin or α II-gliadin) were cultured with a gliadin peptide plus the small molecule analogues in the presence of HLA-DQ2 expressing K562 cells serving as antigen presenting cells. TCR transductants cultured with no gliadin peptide served as the negative control, and incubation with an anti-CD3 antibody (eBioscience; clone 2C11) served as a positive control for the TCR transductant. Secreted IL-2 in the culture supernatant was measured using a highly sensitive enzyme-linked immunosorbent assay (ELISA). […] Assays for effects on cell viability and for specificity, assayed in the absence of gliadin peptide or in the presence of a stimulating anti-CD3 antibody, were performed. A=71-100%; B=41-70%; C=11-40%; D=0-10%, NT=Not tested.
For orientation: An ELISA detects its analyte on a solid surface through an enzyme-linked reagent.

On to `O=C(NC1CCc2n[nH]c(=O)cc2C1)c1ccccc1` (stereo not shown) [Compound 1], for which the “DQ2 IL2 Maximal % Inhibition” value is given as “C (C=11-40%)” and the “concentration at which the compound exhibited maximum % inhibition (DQ2 IL2)” value came out at 50 µM.
On to `Cc1ccc(C(=O)NC2CCc3n[nH]c(=O)cc3C2)cc1` (stereo not shown) [Compound 2], for which the “DQ2 IL2 Maximal % Inhibition” value is listed as “C (C=11-40%)” and the “concentration at which the compound exhibited maximum % inhibition (DQ2 IL2)” value came to 100 µM.
On the same counts, the results for `CCCc1ccc(C(=O)NC2CCc3n[nH]c(=O)cc3C2)cc1` (stereo not shown) [Compound 3] are “B (B=41-70%)” and 100 µM.
Take `CC(C)c1ccc(C(=O)NC2CCc3n[nH]c(=O)cc3C2)cc1` (stereo not shown) [Compound 4]: the “DQ2 IL2 Maximal % Inhibition” value is reported as “A (A=71-100%)” and the “concentration at which the compound exhibited maximum % inhibition (DQ2 IL2)” value was determined as 200 µM.
As for `CCCCc1ccc(C(=O)NC2CCc3n[nH]c(=O)cc3C2)cc1` (stereo not shown) [Compound 5, 4-n-butyl-N-(3-oxo-5,6,7,8-tetrahydrocinnolin-6-yl)benzamide], the “DQ2 IL2 Maximal % Inhibition” value was “D (D=0-10%)” and the “concentration at which the compound exhibited maximum % inhibition (DQ2 IL2)” value is 50 µM.
In the same order, the values of `CC(=O)NC1CCc2n[nH]c(=O)cc2C1` (stereo not shown) [Compound 6] are “C (C=11-40%)” and 50 µM.
`CCC(=O)NC1CCc2n[nH]c(=O)cc2C1` (stereo not shown) [Compound 7]: the “DQ2 IL2 Maximal % Inhibition” value is recorded as “D (D=0-10%)” and the “concentration at which the compound exhibited maximum % inhibition (DQ2 IL2)” value worked out at 200 µM.
For the molecule `CCCC(=O)NC1CCc2n[nH]c(=O)cc2C1` (stereo not shown) [Compound 8], the “DQ2 IL2 Maximal % Inhibition” value is recorded as “D (D=0-10%)” and the “concentration at which the compound exhibited maximum % inhibition (DQ2 IL2)” value came out at 200 µM.
Consider `CCCCC(=O)NC1CCc2n[nH]c(=O)cc2C1` (stereo not shown) [Compound 9], for which the “DQ2 IL2 Maximal % Inhibition” value is on record as “C (C=11-40%)” and the “concentration at which the compound exhibited maximum % inhibition (DQ2 IL2)” value amounted to 100 µM.
On to `CC(C)(C)C(=O)NC1CCc2n[nH]c(=O)cc2C1` (stereo not shown) [Compound 10], for which the “DQ2 IL2 Maximal % Inhibition” value is on record as “D (D=0-10%)” and the “concentration at which the compound exhibited maximum % inhibition (DQ2 IL2)” value was 200 µM.
`O=C(NC1CCc2n[nH]c(=O)cc2C1)C1CC1` (stereo not shown) [Compound 11]: the “DQ2 IL2 Maximal % Inhibition” value was “D (D=0-10%)” and the “concentration at which the compound exhibited maximum % inhibition (DQ2 IL2)” value came out at 200 µM.
On the same counts, the results for `O=C(NC1CCc2n[nH]c(=O)cc2C1)C1CCCCC1` (stereo not shown) [Compound 12] are “C (C=11-40%)” and 0.1 µM.
In the same order, the values of `CC(C)(C)c1ccc(C(=O)NC2CCc3n[nH]c(=O)cc3C2)cc1` (stereo not shown) [Compound 13] are “D (D=0-10%)” and 0.1 µM.
In the same order, the values of `O=C(NC1CCc2n[nH]c(=O)cc2C1)c1ccc(C2CCCCC2)cc1` (stereo not shown) [Compound 14] are “B (B=41-70%)” and 200 µM.
In the case of `CC(C)C(=O)NC1CCc2n[nH]c(=O)cc2C1` (stereo not shown) [Compound 15], the “DQ2 IL2 Maximal % Inhibition” value was “C (C=11-40%)” and the “concentration at which the compound exhibited maximum % inhibition (DQ2 IL2)” value was 100 µM.
On the same counts, the results for `Cn1nc2c(cc1=O)CC(NC(=O)c1ccccc1)CC2` (stereo not shown) [Compound 16, N-(2-methyl-3-oxo-5,6,7,8-tetrahydrocinnolin-6-yl)benzamide] are “B (B=41-70%)” and 100 µM.
For the molecule `Cn1nc2c(cc1=O)CC(NC(=O)c1ccc3ccccc3c1)CC2` (stereo not shown) [Compound 17], the “DQ2 IL2 Maximal % Inhibition” value is “A (A=71-100%)” and the “concentration at which the compound exhibited maximum % inhibition (DQ2 IL2)” value is 100 µM.
With `CC(=O)NC1CCc2nn(C)c(=O)cc2C1` (stereo not shown) [Compound 18], the “DQ2 IL2 Maximal % Inhibition” value is “C (C=11-40%)” and the “concentration at which the compound exhibited maximum % inhibition (DQ2 IL2)” value is 100 µM.
In the same order, the values of `Cn1nc2c(cc1=O)CC(NC(=O)C1CCCCC1)CC2` (stereo not shown) [Compound 19] are “B (B=41-70%)” and 100 µM.
Consider `Cc1ccc(C(=O)NC2CCc3nn(C)c(=O)cc3C2)cc1` (stereo not shown) [Compound 20], for which the “DQ2 IL2 Maximal % Inhibition” value is given as “B (B=41-70%)” and the “concentration at which the compound exhibited maximum % inhibition (DQ2 IL2)” value was 200 µM.
For the molecule `Cn1nc2c(cc1=O)CC(NC(=O)c1ccc(C(F)(F)F)cc1)CC2` (stereo not shown) [Compound 21], the “DQ2 IL2 Maximal % Inhibition” value was “A (A=71-100%)” and the “concentration at which the compound exhibited maximum % inhibition (DQ2 IL2)” value turned out to be 100 µM.
For the molecule `Cn1nc2c(cc1=O)CC(NC(=O)c1cccc3ccccc13)CC2` (stereo not shown) [Compound 22], the “DQ2 IL2 Maximal % Inhibition” value is “C (C=11-40%)” and the “concentration at which the compound exhibited maximum % inhibition (DQ2 IL2)” value worked out at 200 µM.
Turning to `CCCC(=O)NC1CCc2nn(C)c(=O)cc2C1` (stereo not shown) [Compound 23], the “DQ2 IL2 Maximal % Inhibition” value is listed as “C (C=11-40%)” and the “concentration at which the compound exhibited maximum % inhibition (DQ2 IL2)” value amounted to 100 µM.
In the same order, the values of `Cn1nc2c(cc1=O)CC(NC(=O)C(C)(C)C)CC2` (stereo not shown) [Compound 24] are “C (C=11-40%)” and 100 µM.
`Cn1nc2c(cc1=O)CC(NC(=O)C1CC1)CC2` (stereo not shown) [Compound 25]: the “DQ2 IL2 Maximal % Inhibition” value is recorded as “C (C=11-40%)” and the “concentration at which the compound exhibited maximum % inhibition (DQ2 IL2)” value was 200 µM.
For the molecule `O=C(NC1CCc2n[nH]c(=O)cc2C1)c1ccc(F)cc1` (stereo not shown) [Compound 28], the “DQ2 IL2 Maximal % Inhibition” value is recorded as “C (C=11-40%)” and the “concentration at which the compound exhibited maximum % inhibition (DQ2 IL2)” value turned out to be 200 µM.
`O=C(NC1CCc2n[nH]c(=O)cc2C1)c1ccc(Cl)cc1` (stereo not shown) [Compound 29]: the “DQ2 IL2 Maximal % Inhibition” value is on record as “B (B=41-70%)” and the “concentration at which the compound exhibited maximum % inhibition (DQ2 IL2)” value is 200 µM.
In the same order, the values of `O=C(NC1CCc2n[nH]c(=O)cc2C1)c1ccc(Br)cc1` (stereo not shown) [Compound 30] are “C (C=11-40%)” and 200 µM.
Regarding `O=C(NC1CCc2n[nH]c(=O)cc2C1)c1ccc(I)cc1` (stereo not shown) [Compound 31], the “DQ2 IL2 Maximal % Inhibition” value is listed as “C (C=11-40%)” and the “concentration at which the compound exhibited maximum % inhibition (DQ2 IL2)” value was found to be 200 µM.
With `Cn1nc2c(cc1=O)CC(NC(=O)c1ccc(F)cc1)CC2` (stereo not shown) [Compound 32], the “DQ2 IL2 Maximal % Inhibition” value is given as “C (C=11-40%)” and the “concentration at which the compound exhibited maximum % inhibition (DQ2 IL2)” value is 200 µM.
In the same order, the values of `Cn1nc2c(cc1=O)CC(NC(=O)c1ccc(Cl)cc1)CC2` (stereo not shown) [Compound 33] are “B (B=41-70%)” and 200 µM.
On the same counts, the results for `Cn1nc2c(cc1=O)CC(NC(=O)c1ccc(Br)cc1)CC2` (stereo not shown) [Compound 34] are “A (A=71-100%)” and 200 µM.
As to `Cn1nc2c(cc1=O)CC(NC(=O)c1ccc(I)cc1)CC2` (stereo not shown) [Compound 35], the “DQ2 IL2 Maximal % Inhibition” value is “B (B=41-70%)” and the “concentration at which the compound exhibited maximum % inhibition (DQ2 IL2)” value was 200 µM.
As to `CCc1ccc(C(=O)NC2CCc3nn(CC)c(=O)cc3C2)cc1` (stereo not shown) [Compound 36], the “DQ2 IL2 Maximal % Inhibition” value is recorded as “B (B=41-70%)” and the “concentration at which the compound exhibited maximum % inhibition (DQ2 IL2)” value stood at 200 µM.
In the same order, the values of `CCCn1nc2c(cc1=O)CC(NC(=O)c1ccc(CC)cc1)CC2` (stereo not shown) [Compound 37] are “B (B=41-70%)” and 200 µM.
